PubChem BioAssay (NCI)
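Tested at 5 concentrations; 48 h exposure; 96-well plates; endpoints linearly interpolated, else capped at highest concentration. GI50 = concentration required for 50% inhibition of growth. TGI: concentration producing complete growth inhibition.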

What was measured:
Experiment in all cases: NCI tumour cell line growth inhibition, 48 h; in the data active = GI50 below about 0.43 µM; inactive = the rest
786-0 renal = system: 786-0 renal
SNB-19 CNS = system: SNB-19 CNS
RXF-631 renal = system: RXF-631 renal
SK-MEL-2 melanoma = system: SK-MEL-2 melanoma
NCI-H460 lung = system: NCI-H460 lung
CAKI-1 renal = system: CAKI-1 renal
SF-295 CNS = system: SF-295 CNS
OVCAR-5 ovarian = system: OVCAR-5 ovarian
SNB-75 CNS = system: SNB-75 CNS
SK-MEL-28 melanoma = system: SK-MEL-28 melanoma
RXF 393 renal = system: RXF 393 renal
A549 NSCLC = system: A549 NSCLC
EKVX NSCLC = system: EKVX NSCLC
SR leukemia = system: SR leukemia
DLD-1 colon = system: DLD-1 colon
UO-31 renal = system: UO-31 renal
MOLT-4 leukemia = system: MOLT-4 leukemia
UACC-62 melanoma = system: UACC-62 melanoma
OVCAR-4 ovarian = system: OVCAR-4 ovarian
KM12 colon = system: KM12 colon
HOP-18 NSCLC = system: HOP-18 NSCLC
SK-OV-3 ovarian = system: SK-OV-3 ovarian
M14 melanoma = system: M14 melanoma
UACC-257 melanoma = system: UACC-257 melanoma
HT29 colon = system: HT29 colon
LOX IMVI melanoma = system: LOX IMVI melanoma
SK-MEL-5 melanoma = system: SK-MEL-5 melanoma
IGROV1 ovarian = system: IGROV1 ovarian
DMS 273 small cell lung = system: DMS 273 small cell lung
SF-539 CNS = system: SF-539 CNS
OVCAR-8 ovarian = system: OVCAR-8 ovarian
KM20L2 colon = system: KM20L2 colon
M19-MEL melanoma = system: M19-MEL melanoma
MALME-3M melanoma = system: MALME-3M melanoma
NCI-H23 lung = system: NCI-H23 lung
SW-620 colon = system: SW-620 colon
SNB-78 CNS = system: SNB-78 CNS
HCT-15 colon = system: HCT-15 colon
NCI-H226 lung = system: NCI-H226 lung
HCC-2998 colon = system: HCC-2998 colon
OVCAR-3 ovarian = system: OVCAR-3 ovarian
XF 498 CNS = system: XF 498 CNS
U251 CNS = system: U251 CNS
HCT-116 colon = system: HCT-116 colon
DMS 114 small cell lung = system: DMS 114 small cell lung
TK-10 renal = system: TK-10 renal
SN12C renal = system: SN12C renal
COLO 205 colon = system: COLO 205 colon

CN(C)c1ccc([O][Bi]([Cl])[Cl])cc1
inactive: GI50 (786-0 renal) > 100 µM | GI50 (SNB-19 CNS) > 100 µM | GI50 (RXF-631 renal) 30.7 µM | GI50 (SK-MEL-2 melanoma) > 100 µM | GI50 (NCI-H460 lung) > 100 µM | GI50 (CAKI-1 renal) > 100 µM | GI50 (SF-295 CNS) > 100 µM | GI50 (OVCAR-5 ovarian) > 100 µM | GI50 (SNB-75 CNS) > 100 µM | GI50 (SK-MEL-28 melanoma) > 100 µM | GI50 (RXF 393 renal) 82.2 µM | GI50 (A549 NSCLC) > 100 µM | GI50 (EKVX NSCLC) > 100 µM | GI50 (SR leukemia) 80.1 µM | GI50 (DLD-1 colon) > 100 µM | GI50 (UO-31 renal) > 100 µM | GI50 (MOLT-4 leukemia) > 100 µM | GI50 (UACC-62 melanoma) > 100 µM | GI50 (OVCAR-4 ovarian) > 100 µM | GI50 (KM12 colon) > 100 µM | GI50 (HOP-18 NSCLC) > 100 µM | GI50 (SK-OV-3 ovarian) > 100 µM | GI50 (M14 melanoma) 87 µM | GI50 (UACC-257 melanoma) 37.2 µM | GI50 (HT29 colon) > 100 µM | GI50 (LOX IMVI melanoma) > 100 µM | GI50 (SK-MEL-5 melanoma) 29.6 µM | GI50 (IGROV1 ovarian) > 100 µM | GI50 (DMS 273 small cell lung) > 100 µM | GI50 (SF-539 CNS) > 100 µM | GI50 (OVCAR-8 ovarian) 53.2 µM | GI50 (KM20L2 colon) > 100 µM | GI50 (M19-MEL melanoma) > 100 µM | GI50 (MALME-3M melanoma) > 100 µM | GI50 (NCI-H23 lung) > 100 µM | GI50 (SW-620 colon) > 100 µM | GI50 (SNB-78 CNS) > 100 µM | GI50 (HCT-15 colon) > 100 µM | GI50 (NCI-H226 lung) > 100 µM | GI50 (HCC-2998 colon) 42.5 µM | GI50 (OVCAR-3 ovarian) > 100 µM | GI50 (XF 498 CNS) 80.6 µM | GI50 (U251 CNS) > 100 µM | GI50 (HCT-116 colon) > 100 µM | GI50 (DMS 114 small cell lung) 87.9 µM | GI50 (TK-10 renal) > 100 µM | GI50 (SN12C renal) > 100 µM | GI50 (COLO 205 colon) > 100 µM
> 100 µM: TGI (786-0 renal) | TGI (SNB-19 CNS) | TGI (RXF-631 renal) | TGI (SK-MEL-2 melanoma) | TGI (NCI-H460 lung) | TGI (CAKI-1 renal) | TGI (SF-295 CNS) | TGI (OVCAR-5 ovarian) | TGI (SNB-75 CNS) | TGI (SK-MEL-28 melanoma) | TGI (RXF 393 renal) | TGI (A549 NSCLC) | TGI (EKVX NSCLC) | TGI (SR leukemia) | TGI (DLD-1 colon) | TGI (UO-31 renal) | TGI (MOLT-4 leukemia) | TGI (UACC-62 melanoma) | TGI (OVCAR-4 ovarian) | TGI (KM12 colon) | TGI (HOP-18 NSCLC) | TGI (SK-OV-3 ovarian) | TGI (M14 melanoma) | TGI (UACC-257 melanoma) | TGI (HT29 colon) | TGI (LOX IMVI melanoma) | TGI (SK-MEL-5 melanoma) | TGI (IGROV1 ovarian) | TGI (DMS 273 small cell lung) | TGI (SF-539 CNS) | TGI (OVCAR-8 ovarian) | TGI (KM20L2 colon) | TGI (M19-MEL melanoma) | TGI (MALME-3M melanoma) | TGI (NCI-H23 lung) | TGI (SW-620 colon) | TGI (SNB-78 CNS) | TGI (HCT-15 colon) | TGI (NCI-H226 lung) | TGI (HCC-2998 colon) | TGI (OVCAR-3 ovarian) | TGI (XF 498 CNS) | TGI (U251 CNS) | TGI (HCT-116 colon) | TGI (DMS 114 small cell lung) | TGI (TK-10 renal) | TGI (SN12C renal) | TGI (COLO 205 colon)
